Tests used:
[1] = Binding affinity to human telomeric duplex DNA
[2] = organism: Homo sapiens; assay: Increase in thermal stability of human telomeric i-Motif DNA assessed as change in melting temperature at pH 5.5
[3] = organism: Homo sapiens; assay: Binding to human telomeric i-Motif DNA by fluorescence titration method
[4] = Binding affinity to human telomeric G-quadruplex DNA
[5] = Binding affinity to bcl-2 i-Motif DNA (unknown origin) by fluorescence based assay
[6] = Antitumor activity against human GRANTA-519 cells xenografted in mouse assessed as inhibition of tumor growth co-administered with etoposide; assay type: functional
[7] = Reduction in bcl-2 expression in human GRANTA-519 cells xenografted in mouse; assay type: functional; details: dose or concentration not given here
[8] = Binding affinity to d(C5T3)3C5 i-Motif DNA (unknown origin) by UV titration method
[9] = organism: Homo sapiens; assay: Binding affinity to human telomeric i-Motif DNA assessed as change in melting temperature at pH 6.8 by FRET assay
[10] = organism: Homo sapiens; assay: Binding affinity to human telomeric G-quadruplex DNA assessed as change in melting temperature by FRET assay

Compound	Kd [1] [µM]	ΔTm [2] [°C]	Kd [3] [µM]	Kd [4] [nM]	other results
O=C(Nc1ccc(OCCN2CCCCC2)cc1)c1ccc2ccc3ccc(C(=O)Nc4ccc(OCCN5CCCCC5)cc4)nc3c2n1	6.7	7	4	1600	
COc1ccc2c(c1)CN([C@@H](C)[C@H]1CC[C@H]3[C@@H]4CC[C@H]5C[C@@H](O)CC[C@]5(C)[C@H]4CC[C@]13C)CO2					Kd [5]: 1010 nM; TGI [6]: 65%; inhibition [7]: 20%
CN(C)c1ccc(C(=C2C=CC(=[N+](C)C)C=C2)c2ccc(N(C)C)cc2)cc1 [GENTIAN VIOLET]					Kd [8]: 830 nM
O=C(Nc1ccc(OCCN2CCCC2)cc1)c1ccc2ccc3ccc(C(=O)Nc4ccc(OCCN5CCCC5)cc4)nc3c2n1	6.7	7	4	1600	
CC(C)CC[C@H](C)[C@@H]1CC[C@H]2[C@@H]3CC[C@H]4C[C@@H](NC(=O)C[N+]5(C)CCCCC5)CC[C@]4(C)[C@H]3CC[C@@]21C					Kd [5]: 490 nM
c1cc2nc3ccc4cc3cc2cc1CNCCNCCNCc1ccc2nc3ccc(cc3cc2c1)CNCCNCCNC4					ΔTm [9]: 33 °C; ΔTm [10]: 15 °C
CN(C)CCOc1ccc(NC(=O)c2ccc3ccc4ccc(C(=O)Nc5ccc(OCCN(C)C)cc5)nc4c3n2)cc1	6.7	7	4	1600	
